What was measured:
Settings in all cases: 37 °C
[1] = target: T1, Prostaglandin E2 receptor EP4 subtype (Rattus norvegicus, UniProt P43114); test: SEAP Activity Assay
[2] = target: Prostaglandin E2 receptor EP2 subtype (Rattus norvegicus, UniProt Q62928); test: SEAP Activity Assay
[3] = target: T1, Prostaglandin E2 receptor EP4 subtype; test: cAMP Assay

T1 sequence (P43114 whole entry): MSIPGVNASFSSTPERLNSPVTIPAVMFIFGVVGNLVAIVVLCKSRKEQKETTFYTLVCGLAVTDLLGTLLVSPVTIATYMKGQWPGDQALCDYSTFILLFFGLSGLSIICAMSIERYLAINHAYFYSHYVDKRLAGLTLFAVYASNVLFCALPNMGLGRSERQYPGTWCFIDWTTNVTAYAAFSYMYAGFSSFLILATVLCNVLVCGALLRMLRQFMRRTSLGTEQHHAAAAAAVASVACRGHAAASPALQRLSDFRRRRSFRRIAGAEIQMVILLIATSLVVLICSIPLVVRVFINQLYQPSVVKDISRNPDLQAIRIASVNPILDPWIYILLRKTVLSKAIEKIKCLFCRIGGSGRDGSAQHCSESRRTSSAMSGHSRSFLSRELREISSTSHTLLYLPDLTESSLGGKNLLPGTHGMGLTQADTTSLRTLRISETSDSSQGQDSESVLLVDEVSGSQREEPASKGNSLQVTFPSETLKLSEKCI
Chain of Prostaglandin E2 receptor EP2 subtype (Q62928 whole entry): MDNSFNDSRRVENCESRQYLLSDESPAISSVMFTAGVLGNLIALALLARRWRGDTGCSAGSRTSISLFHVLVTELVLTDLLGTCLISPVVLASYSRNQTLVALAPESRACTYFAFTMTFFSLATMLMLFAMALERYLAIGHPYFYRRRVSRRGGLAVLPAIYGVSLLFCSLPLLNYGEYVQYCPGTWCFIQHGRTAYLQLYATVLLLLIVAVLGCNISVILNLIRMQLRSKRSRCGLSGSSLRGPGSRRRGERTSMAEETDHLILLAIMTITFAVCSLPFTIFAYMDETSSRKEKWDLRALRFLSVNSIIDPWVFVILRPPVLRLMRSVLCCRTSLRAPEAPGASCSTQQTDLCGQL

Row | EC50 [1] | EC50 [2] | EC50 [3] | Structure (SMILES)
1 | 0.11 nM | 763 nM | 0.73 nM | CCC#CC[C@H](C)[C@H](O)/C=C/[C@H]1CC(F)(F)C(=O)N1CCCc1ccc(C(=O)O)s1 [US9180116, 24D]
2 |  |  | 0.15 nM | C[C@@H](CCc1ccccc1)[C@H](O)/C=C/[C@H]1CC(F)(F)C(=O)N1CCCc1ccc(C(=O)O)s1 [US9180116, 37C]
3 |  | 743 nM | 198 nM | C[C@@H](CCc1ccccc1)[C@@H](O)/C=C/[C@H]1CC(F)(F)C(=O)N1CCCc1ccc(C(=O)O)s1 [US9180116, 37D]

Source: BindingDB's records for patent US9180116 (Cayman Chemical, 2015)
